Values quoted from earlier work in patent US20100273829A1, “Methods for Treating Disorders Associated with Hyperlipidemia in a Mammal” (priority 2005, published 2010).
Entries after “also recorded” stand apart in the source; their conditions may differ. Like-named read-outs stand apart in the source and are kept apart here.

Experiments:
[1] = ezetimibe 10 mg/day added to maximal statin regimen (80 mg/day), hoFH patients

## O=C(NC1CCN(CCCCC2(C(=O)NCC(F)(F)F)c3ccccc3-c3ccccc32)CC1)c1ccccc1-c1ccc(C(F)(F)F)cc1 [BMS-201038, N-(2,2,2-Trifluorethyl)-9-[4-[4-[[[4′-(trifluoromethyl)[1,1′biphenyl]-2-Yl]carbonyl]amino]-1-piperidinyl]butyl]9H-fluorene-9-carboxamide]
patients, 25 mg/day BMS-201038 monotherapy
  adverse events: gastrointestinal perturbations, abnormalities in liver function, and hepatic steatosis; also recorded: gastrointestinal disorders, abnormalities in liver function and/or hepatic steatosis

## O=C1[C@H](CC[C@H](O)c2ccc(F)cc2)[C@@H](c2ccc(O)cc2)N1c1ccc(F)cc1 [ezetimibe]
[1]
  total reduction of LDL-C levels: 27%

## Cc1cc(C)c2c3ccccc3n(Cc3ccc([C@@H](C(=O)N[C@H](CO)c4ccccc4)C4CCCC4)cc3)c2n1 [implitapide, (2S)-2-cyclopentyl-2-[4-[(2,4-dimethyl-9H-pyrido[2,3-b]indol-9-yl)methyl]phenyl]-N-[(1S)-2-hydroxy-1-phenylethyl]ethanamide]
Clinical studies, implitapide 80 mg/day or greater
  therapeutic efficacy: therapeutically effective
Clinical studies, implitapide 80 mg/day or greater (80 mg/day, 160 mg/day)
  adverse events: gastrointestinal disturbances, abnormalities in liver function, and hepatic steatosis; also recorded: gastrointestinal disorders, abnormalities in liver function and/or hepatic steatosis
